US6696481B2, “Salt of perindopril and pharmaceutical compositions containing it” (Les Laboratoires Servier, priority 2003, dated 2004)

Columns and labels:
[1] = Long-term stability study of immediate-release tablets, perindopril assayed by inverse-phase HPLC; assay type: physicochemical; conditions: for Percentage remaining (%): 6 months; for degradation rate: after 6 months
Protocol: Long-term stability studies carried out under very precise temperature and humidity conditions have yielded the results indicated in the Table hereinbelow.
In that study, perindopril was assayed by inverse-phase high-pressure liquid chromatography using, as eluant, an aqueous phase (comprising sodium heptane-sulphonate, and the pH of which is 2) and acetonitrile (67/33). Detection of the product was carried out by UV (215 nm).
The study was carried out using immediate-release tablets containing either 2.4 mg of the arginine salt of perindopril or 2.0 mg of the tert-butylamine salt of perindopril (each of the two tablets containing 1.7 mg of perindopril). The tablets were assayed 6 months after the start of storage of the tablets at different temperatures and different relative humidities (% R.H.).
The arginine salt used in this study is the L-arginine salt. It has been prepared according to a classical method of salification of organic chemistry.

[2] = Shelf-life of tablets / pharmaceutical compositions; assay type: physicochemical
From the text: However, in view of the intrinsic fragility of perindopril, the tert-butylamine salt has not been capable of providing a complete solution to the problems of the product's stability to heat and humidity. Indeed, for marketing, tablets of perindopril tert-butylamine salt must, in certain countries, be protected with additional packaging measures. Moreover, even for temperate-climate countries, that instability has made it impossible to obtain a shelf-life of more than 2 years for the tablets. Finally, for marketing of the tablets, they have to be marked “to be stored at a temperature less than or equal to 30 degrees”.

| SMILES | Percentage remaining (%) ([1]; 25° C., 60% R.H.) | Percentage remaining (%) ([1]; 30° C., 60% R.H.) | Percentage remaining (%) ([1]; 40° C., 75% R.H.) | degradation rate [1] | shelf-life ([2]; tablets, temperate-climate countries) [years] | shelf-life ([2]; pharmaceutical compositions, considered from the 6-month results) |
| --- | --- | --- | --- | --- | --- | --- |
| CC(C)(C)N.CCC[C@H](N[C@@H](C)C(=O)N1[C@H](C(=O)O)C[C@@H]2CCCC[C@@H]21)C(=O)OCC [tert-Butylamine salt of perindopril] | 101.0 | 94.4 | 67.2 | approximately 33% | ≤ 2 |  |
| CCC[C@H](N[C@@H](C)C(=O)N1[C@H](C(=O)O)C[C@@H]2CCCC[C@@H]21)C(=O)OCC.N=C(N)NCCC[C@H](N)C(=O)O [Arginine salt of perindopril] | 99.5 | 98.1 | 98.6 | practically no degradation |  | at least three years |
